Laboratory results: ChEMBL document CHEMBL1201862, “PubChem BioAssay data set” (2004)
“And” between values parts separate entries of the source, which are not always exact repeats. Equal values may be shown once. The source made the active and inactive calls.

What was measured:
[1] = target: Aryl hydrocarbon receptor (Homo sapiens, UniProt P35869); settings: Potency;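 note: confirmatory quantitative high-throughput screen measuring activation of the AhR signaling pathway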
[2] = target: T1, High affinity choline transporter 1 (Homo sapiens, UniProt Q9GZV3); assay: human choline transporter blockers, potency – cell-based, 10-point CRC, membrane potential dye, dose response (AID 588401); format: functional;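 note: membrane potential dye fluorescence of choline-evoked depolarization via CHT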
T1 sequence (Q9GZV3 whole entry): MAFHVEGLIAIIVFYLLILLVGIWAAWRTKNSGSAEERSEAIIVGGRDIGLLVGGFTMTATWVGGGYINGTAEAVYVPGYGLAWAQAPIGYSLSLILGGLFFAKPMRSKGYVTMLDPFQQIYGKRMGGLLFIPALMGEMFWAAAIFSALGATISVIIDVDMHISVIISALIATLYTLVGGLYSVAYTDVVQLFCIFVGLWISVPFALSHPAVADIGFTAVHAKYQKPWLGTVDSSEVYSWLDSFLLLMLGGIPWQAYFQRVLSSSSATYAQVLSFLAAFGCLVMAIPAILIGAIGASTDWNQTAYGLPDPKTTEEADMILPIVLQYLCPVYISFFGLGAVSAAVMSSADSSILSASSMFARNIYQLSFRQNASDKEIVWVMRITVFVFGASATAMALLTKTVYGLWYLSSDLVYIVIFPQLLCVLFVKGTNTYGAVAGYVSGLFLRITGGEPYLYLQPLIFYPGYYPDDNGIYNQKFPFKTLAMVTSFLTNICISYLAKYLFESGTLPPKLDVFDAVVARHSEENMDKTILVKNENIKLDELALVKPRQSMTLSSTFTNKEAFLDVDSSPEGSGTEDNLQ

[3] = target: T1, High affinity choline transporter 1; assay: human choline transporter blockers, potency – cell-based, 5-point CRC, membrane potential dye, dose response (AID 504840); format: functional
[4] = system: H4; assay: Luminescence Cell-Based Dose Response HTS to Identify Activators of 5'UTR Stem-Loop Driven Prion Protein mRNA Translation in H4 Neuroglioblastoma Cells. [Related pubchem assays: 1829 (Project Summary), 1814 (Primary HTS)]; format: functional; settings: Homo sapiens
[5] = THP-1 cell cytotoxicity, dose response, cytotoxicity control for non-replicating M. tuberculosis project (AID 489025); format: functional
[6] = Luminescence Cell-Based Dose Retest to Confirm Inhibitors of Cancer Stem Cells. [Related pubchem assays (depositor defined):AID2717, AID2721]; format: functional, Homo sapiens; settings: Homo sapiens
[7] = Luminescence Cell-Based Dose Confirmation HTS to Identify Activators of 5'UTR Stem-Loop Driven Alpha-Synuclein mRNA Translation in H4 Neuroglioblastoma Cells. [Related pubchem assays: 1829 (Project Summary), 1814 (Primary HTS)]; format: functional
[8] = target: Steroidogenic factor 1 (Homo sapiens, UniProt Q13285); assay: Counterscreen for inverse agonists of the liver receptor homolog-1 (LRH-1; NR5A2): Luminescence-based cell-based high throughput dose response assay to identify inverse agonists of the Steroidogenic Factor 1 Nuclear Receptor (SF1; NR5A1).; format: functional
[9] = Vero E6 cell cytotoxicity, dose response, cytotoxicity control for non-replicating M. tuberculosis project, secondary assay (AID 492998); format: functional, VeroE6; settings: Vero C1008
[10] = nonselective StAR promoter luciferase inhibitors – cell-based, luminescence, luciferase reporter, counter-screen for LRH-1 inverse agonist project, dose response (AID 651969); format: functional
[11] = cells; format: functional
[12] = Luminescence Cell-Based Dose Response HTS to Identify Activators of Luciferase Translation or Activity in H4 […] Cells. [Related pubchem assays: 1829 (Project Summary), 1814 (Primary HTS)]; format: functional
[13] = target: Nuclear receptor subfamily 5 group A member 2 (Homo sapiens, UniProt O00482); format: functional, cell-based;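 note: HEK293T cells transfected with LRH-1 and a StAR promoter luciferase reporter; potency for inhibitors that lower LRH-1 driven reporter light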
[14] = target: T2, Low molecular weight phosphotyrosine protein phosphatase (Homo sapiens, UniProt P24666); format: functional; settings: read-out: IC50_Mean
T2 sequence (P24666 whole entry): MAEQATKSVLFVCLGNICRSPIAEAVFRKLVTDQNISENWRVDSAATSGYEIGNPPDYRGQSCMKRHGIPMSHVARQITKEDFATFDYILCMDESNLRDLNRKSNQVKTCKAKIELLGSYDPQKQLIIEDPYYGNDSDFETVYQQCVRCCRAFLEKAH

[15] = target: T2, Low molecular weight phosphotyrosine protein phosphatase; format: functional; settings: read-out: IC50_Mean; remark: listed apart in the source
[16] = target: T3, Tyrosine-protein phosphatase non-receptor type 22 (Homo sapiens, UniProt Q9Y2R2); assay: PTPN22 enzyme inhibitors – biochemical, fluorescence, LYP catalytic domain, selectivity assay for LMPTP inhibitor project, dose response (AID 652006); format: functional; settings: read-out: IC50_Mean
T3 sequence (Q9Y2R2 whole entry): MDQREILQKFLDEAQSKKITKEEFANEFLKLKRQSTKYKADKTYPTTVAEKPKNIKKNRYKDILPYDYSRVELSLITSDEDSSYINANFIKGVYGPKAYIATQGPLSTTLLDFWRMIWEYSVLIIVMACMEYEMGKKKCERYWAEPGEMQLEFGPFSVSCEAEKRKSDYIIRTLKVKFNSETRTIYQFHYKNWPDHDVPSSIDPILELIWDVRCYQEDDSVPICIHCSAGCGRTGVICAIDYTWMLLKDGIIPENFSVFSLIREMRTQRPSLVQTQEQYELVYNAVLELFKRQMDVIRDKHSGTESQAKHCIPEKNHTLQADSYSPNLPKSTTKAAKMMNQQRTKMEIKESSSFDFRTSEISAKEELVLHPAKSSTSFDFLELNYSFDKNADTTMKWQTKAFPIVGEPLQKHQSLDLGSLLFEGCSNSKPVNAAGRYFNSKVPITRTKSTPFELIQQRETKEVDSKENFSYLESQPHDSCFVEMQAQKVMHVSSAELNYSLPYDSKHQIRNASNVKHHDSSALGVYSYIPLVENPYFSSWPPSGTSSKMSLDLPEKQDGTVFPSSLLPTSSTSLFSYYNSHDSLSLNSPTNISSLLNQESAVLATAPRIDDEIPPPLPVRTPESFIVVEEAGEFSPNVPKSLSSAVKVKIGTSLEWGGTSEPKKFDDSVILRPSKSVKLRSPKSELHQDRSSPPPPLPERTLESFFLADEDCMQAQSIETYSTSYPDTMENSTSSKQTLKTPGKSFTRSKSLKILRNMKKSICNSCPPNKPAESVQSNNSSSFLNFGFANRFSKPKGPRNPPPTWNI

[17] = system: BJ; assay: BJ-TERT-LT-ST fibroblast viability loss – cell-based, RAS-independent, luminescence, dose response (AID 1935); format: functional; settings: Homo sapiens;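 note: BJ fibroblasts immortalized with TERT plus LT and ST oncogenes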
[18] = Fluorescence-based cell-based high throughput dose response assay for inhibitors of the interaction of nucleotide-binding oligomerization domain containing 2 (NOD2) and the receptor-interacting serine-threonine kinase 2 (RIPK2).; format: functional; settings: Homo sapiens
[19] = system: BJ; assay: cells; format: functional, cell-based; settings: Homo sapiens
[20] = target: T1, High affinity choline transporter 1; assay: human choline transporter potentiators, potency – cell-based, 10-point CRC, membrane potential dye, dose response (AID 602376); format: functional
[21] = system: BJ; assay: growth inhibition of engineered Ras-driven BJ cells – cell-based, alamar blue fluorescence, cherrypicked samples, dose response (AID 2631); format: functional; settings: Homo sapiens;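 note: confirmatory dose-response assay in RAS-dependent BJ fibroblasts engineered with TERT, LT and ST, with cytotoxicity read by fluorescence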
[22] = system: BJ; assay: BJ-TERT fibroblast viability loss – cell-based, RAS-independent, luminescence, dose response (AID 1933); format: functional; settings: Homo sapiens
[23] = DRD fibroblast viability loss – cell-based, non-viral oncogenic, luminescence, dose response (AID 1934); format: functional; settings: Homo sapiens
[24] = target: Photoreceptor-specific nuclear receptor (Homo sapiens, UniProt Q9Y5X4); format: functional, cell-based;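 note: CHO-S cells with Gal4-NCOR and VP16-NR2E3 two-hybrid luciferase reporter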
[25] = target: Luciferin 4-monooxygenase (Photinus pyralis, UniProt P08659); assay: inhibition of purified Photinus pyralis luciferase – biochemical, luminescence, dose response (AID 1891)
[26] = Luminescence Cell-Based Dose Confirmation HTS to Identify Inhibitors of Platelet Dense Granule Release. [Related pubchem assays: 1663 (Primary HTS), 1678 (Summary of Project)]; format: functional
[27] = target: Heat shock protein HSP 90-alpha (Homo sapiens, UniProt P07900); format: functional, organism-based
[28] = A cytotoxicity screen of small molecule inhibitors of the PhoP region in Salmonella typhi identified in the primary screen. [Related pubchem assays: 1850, 1864, 1985 ]; format: functional
[29] = system: H9c2; assay: cells; format: functional, cell-based; settings: Rattus norvegicus, H9c2, Myocardium;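 note: confirmatory concentration-response retest of ultra-high-throughput screening hits for modulation of myocardial damage; cell death induced by hydrogen peroxide oxidative stress; compound pretreatment for 60 min then peroxide exposure for 2 h; potency is for protecting the cells against peroxide damage rather than for killing them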
[30] = blockers of CRF-binding protein–CRF-R2 complex – cell-based, uHTS hits, 384-well, dose response (AID 651639); format: functional, Homo sapiens; settings: read-out: IC50_Mean
[31] = target: T4, Corticotropin-releasing factor receptor 2/Corticotropin-releasing factor-binding protein (Homo sapiens, UniProt P24387+Q13324); assay: Dose Response confirmation of uHTS hits for small molecule antagonists of the CRF-binding protein and CRF-R2 receptor complex.; format: functional; settings: read-out: IC50_Mean
T4 sequence (Q13324 whole entry): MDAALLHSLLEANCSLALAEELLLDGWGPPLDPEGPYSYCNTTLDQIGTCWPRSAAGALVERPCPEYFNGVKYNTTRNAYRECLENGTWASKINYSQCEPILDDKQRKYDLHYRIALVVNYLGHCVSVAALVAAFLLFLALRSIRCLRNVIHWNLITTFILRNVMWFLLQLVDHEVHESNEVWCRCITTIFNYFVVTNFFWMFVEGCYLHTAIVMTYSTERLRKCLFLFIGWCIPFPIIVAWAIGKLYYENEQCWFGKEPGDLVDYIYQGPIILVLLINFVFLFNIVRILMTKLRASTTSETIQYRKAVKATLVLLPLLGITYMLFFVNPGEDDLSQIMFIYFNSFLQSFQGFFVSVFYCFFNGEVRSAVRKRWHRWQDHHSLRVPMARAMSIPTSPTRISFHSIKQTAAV
T4 sequence (P24387 whole entry): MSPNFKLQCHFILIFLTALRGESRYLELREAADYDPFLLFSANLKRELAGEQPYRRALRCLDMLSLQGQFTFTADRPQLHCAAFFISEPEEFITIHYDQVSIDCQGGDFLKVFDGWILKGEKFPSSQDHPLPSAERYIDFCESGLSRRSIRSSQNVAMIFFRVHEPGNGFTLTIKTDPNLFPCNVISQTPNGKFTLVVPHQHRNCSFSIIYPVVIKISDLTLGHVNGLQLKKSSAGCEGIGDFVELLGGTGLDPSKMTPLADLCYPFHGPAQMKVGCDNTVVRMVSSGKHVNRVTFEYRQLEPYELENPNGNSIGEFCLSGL

[32] = target: T4, Corticotropin-releasing factor receptor 2/Corticotropin-releasing factor-binding protein; assay: activators of CRF receptor 2 with binding protein – uHTS hits, confirmation (AID 602473); format: functional; settings: read-out: EC50_Mean

Aryl hydrocarbon receptor, sequence (P35869 whole entry): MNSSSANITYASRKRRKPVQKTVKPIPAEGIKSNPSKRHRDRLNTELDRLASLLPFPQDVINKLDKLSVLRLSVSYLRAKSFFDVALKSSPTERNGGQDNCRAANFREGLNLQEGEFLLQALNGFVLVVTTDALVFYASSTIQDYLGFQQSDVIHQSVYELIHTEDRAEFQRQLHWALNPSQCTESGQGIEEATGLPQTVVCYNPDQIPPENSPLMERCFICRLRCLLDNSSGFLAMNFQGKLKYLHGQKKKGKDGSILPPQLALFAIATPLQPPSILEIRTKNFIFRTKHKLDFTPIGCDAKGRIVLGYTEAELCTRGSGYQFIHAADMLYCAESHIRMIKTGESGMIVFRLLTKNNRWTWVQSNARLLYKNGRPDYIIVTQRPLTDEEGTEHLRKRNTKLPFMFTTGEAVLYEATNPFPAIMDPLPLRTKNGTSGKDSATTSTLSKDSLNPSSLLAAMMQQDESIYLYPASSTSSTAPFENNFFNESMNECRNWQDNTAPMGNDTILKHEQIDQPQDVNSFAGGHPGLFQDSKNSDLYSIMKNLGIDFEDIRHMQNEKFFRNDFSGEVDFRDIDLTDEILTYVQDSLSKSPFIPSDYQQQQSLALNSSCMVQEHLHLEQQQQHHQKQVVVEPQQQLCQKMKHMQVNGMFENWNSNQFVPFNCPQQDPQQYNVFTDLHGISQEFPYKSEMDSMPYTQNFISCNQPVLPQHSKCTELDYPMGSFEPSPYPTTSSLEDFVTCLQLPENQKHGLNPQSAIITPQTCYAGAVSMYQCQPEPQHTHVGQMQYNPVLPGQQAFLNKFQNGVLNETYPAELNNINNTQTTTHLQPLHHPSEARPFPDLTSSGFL
Photoreceptor-specific nuclear receptor, sequence (Q9Y5X4 whole entry, the tested form may be a part): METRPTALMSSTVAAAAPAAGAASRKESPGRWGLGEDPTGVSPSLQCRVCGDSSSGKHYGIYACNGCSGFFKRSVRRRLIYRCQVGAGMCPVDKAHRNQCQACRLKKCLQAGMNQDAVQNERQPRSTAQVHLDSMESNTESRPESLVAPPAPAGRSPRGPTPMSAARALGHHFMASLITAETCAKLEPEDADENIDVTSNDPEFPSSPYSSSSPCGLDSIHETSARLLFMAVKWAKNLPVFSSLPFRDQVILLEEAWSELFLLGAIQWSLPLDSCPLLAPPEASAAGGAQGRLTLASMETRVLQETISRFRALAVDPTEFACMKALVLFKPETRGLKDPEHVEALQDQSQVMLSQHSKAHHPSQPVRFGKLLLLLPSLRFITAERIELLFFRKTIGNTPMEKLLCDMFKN
Luciferin 4-monooxygenase, sequence (P08659 whole entry): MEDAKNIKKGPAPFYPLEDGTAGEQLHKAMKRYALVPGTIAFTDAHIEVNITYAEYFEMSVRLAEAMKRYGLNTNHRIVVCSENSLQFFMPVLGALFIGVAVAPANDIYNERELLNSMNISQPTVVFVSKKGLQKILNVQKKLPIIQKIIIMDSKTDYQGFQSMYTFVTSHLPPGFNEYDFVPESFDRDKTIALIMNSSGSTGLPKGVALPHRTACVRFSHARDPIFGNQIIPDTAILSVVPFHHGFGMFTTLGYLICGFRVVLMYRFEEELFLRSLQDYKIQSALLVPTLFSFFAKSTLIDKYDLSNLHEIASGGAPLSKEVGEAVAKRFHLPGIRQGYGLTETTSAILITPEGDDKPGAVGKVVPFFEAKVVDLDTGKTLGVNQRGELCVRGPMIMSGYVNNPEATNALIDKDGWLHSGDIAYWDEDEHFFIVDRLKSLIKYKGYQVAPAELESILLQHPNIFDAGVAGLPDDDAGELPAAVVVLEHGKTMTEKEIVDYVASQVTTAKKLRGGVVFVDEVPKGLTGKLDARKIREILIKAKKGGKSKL
Steroidogenic factor 1, sequence (Q13285 whole entry): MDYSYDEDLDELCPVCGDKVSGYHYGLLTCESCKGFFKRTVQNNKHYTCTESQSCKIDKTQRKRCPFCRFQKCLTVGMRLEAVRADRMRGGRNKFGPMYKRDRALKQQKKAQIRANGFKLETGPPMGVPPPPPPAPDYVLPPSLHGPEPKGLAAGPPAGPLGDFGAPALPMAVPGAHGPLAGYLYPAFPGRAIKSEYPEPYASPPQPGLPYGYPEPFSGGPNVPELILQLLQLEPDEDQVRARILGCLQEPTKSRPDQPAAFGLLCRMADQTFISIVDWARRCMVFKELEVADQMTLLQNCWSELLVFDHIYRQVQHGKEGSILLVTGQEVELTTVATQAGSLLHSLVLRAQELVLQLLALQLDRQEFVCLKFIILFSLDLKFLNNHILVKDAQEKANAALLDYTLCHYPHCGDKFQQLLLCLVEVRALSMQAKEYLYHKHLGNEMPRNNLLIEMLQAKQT
Nuclear receptor subfamily 5 group A member 2, sequence (O00482 whole entry): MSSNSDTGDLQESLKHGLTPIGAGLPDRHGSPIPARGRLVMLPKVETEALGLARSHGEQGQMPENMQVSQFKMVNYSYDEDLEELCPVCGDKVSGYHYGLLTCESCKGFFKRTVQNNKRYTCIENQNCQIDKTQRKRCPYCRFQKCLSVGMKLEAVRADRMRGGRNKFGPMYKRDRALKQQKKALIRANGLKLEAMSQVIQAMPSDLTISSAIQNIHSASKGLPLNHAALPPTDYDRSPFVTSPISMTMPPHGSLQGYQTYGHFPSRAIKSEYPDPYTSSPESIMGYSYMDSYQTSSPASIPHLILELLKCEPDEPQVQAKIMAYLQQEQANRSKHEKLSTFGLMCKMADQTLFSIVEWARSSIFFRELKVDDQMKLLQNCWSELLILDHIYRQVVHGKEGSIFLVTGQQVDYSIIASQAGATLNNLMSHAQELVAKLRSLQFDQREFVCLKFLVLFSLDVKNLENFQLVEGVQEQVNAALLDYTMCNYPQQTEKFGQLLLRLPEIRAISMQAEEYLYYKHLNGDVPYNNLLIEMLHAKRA

O=c1cc(-c2ccc(O)cc2)oc2cc(O)cc(O)c12 [APIGENIN]
AC50 [1]: 35.5 µM (inconclusive) and 28.2 µM (inconclusive)

O=c1c2ccccc2[nH]c(=S)n1CCN1CCCCC1
IC50 [2]: 7.94 µM (active)
IC50 [3]: 8.77 µM (active)

O=C(Nc1ccc(S(=O)(=O)N2CCOCC2)cc1)c1ccc([N+](=O)[O-])o1
EC50 [4]: > 120 µM (not active)
CC50 [5]: 4.04 µM (active)
AC50 [6]: 3.43 µM (active)
EC50 [7]: > 120 µM (not active)
IC50 [8]: 0.443 µM (active)
CC50 [9]: 3.98 µM (active)
IC50 [10]: 35.9 µM (inactive)
IC50 [11]: 6.7 µM (active)
EC50 [12]: > 120 µM (not active)
IC50 [13]: 10.8 µM (inactive)

COc1ccccc1CNc1nc(NCc2ccc(NC(C)=O)cc2)c2sccc2n1
IC50 [14]: 5.86 µM (active)
IC50 [15]: 17.7 µM (active)
IC50 [16]: 50.4 µM (inactive)

CCOC(=O)c1ccc(NC(=O)Nc2ccon2)cc1
EC50 [17]: 0.469 µM (active)
IC50 [18]: 49.7 µM (inactive)
EC50 [19]: 20.1 µM (active)
EC50 [20]: 8.42 µM (active)
EC50 [21]: < 0.104 µM (active)
EC50 [22]: 0.401 µM (active)
EC50 [23]: 0.429 µM (active)

Cc1cccc(C)c1OCc1cc(C(=O)N2CCC(c3ccncc3)CC2)no1
IC50 [24]: 6.23 µM (active)
EC50 [25]: > 112 µM (not active)
EC50 [26]: > 112 µM (not active)

Cc1c(/N=C/c2cc(Br)cc(Br)c2O)cccc1C(=O)O
AC50 [27]: 3.56 µM (active)
EC50 [28]: > 50 µM (active)
IC50 [2]: 2.67 µM (active)
IC50 [3]: 3.44 µM (active)
IC50 [29]: 20 µM (active)

COC(=O)c1ccc(Sc2ccc(Cl)cc2)c(N)c1
IC50 [30]: > 20 µM (inactive)
IC50 [31]: < 0.368 µM (active)
EC50 [32]: > 53 µM (inactive)
